This is an account of results in ChEMBL document CHEMBL1144031, “[4-(Phenoxy)pyridin-3-yl]methylamines: a new class of selective noradrenaline reuptake inhibitors” (Bioorg Med Chem Lett, 2008).

Data set [1] deals with Sodium-dependent noradrenaline transporter (Homo sapiens, UniProt P23975).
Description: Inhibition of [3H]Nisoxetine uptake in human noradrenaline transporter transfected HEK293 cells
Data set [2] concerns the target Sodium-dependent serotonin transporter (Homo sapiens, UniProt P31645). The data set is described as follows: Inhibition of [3H]Citalopram uptake in human 5HTT transfected HEK293 cells. The class given is cell-based.
In data set [3] the target is Sodium-dependent dopamine transporter (Homo sapiens, UniProt Q01959). The data set is described as follows: Inhibition of [3H]WIN-35428 uptake in human DAT transfected HEK293 cells. The class given is cell-based.
Sodium-dependent dopamine transporter, sequence (Q01959 whole entry): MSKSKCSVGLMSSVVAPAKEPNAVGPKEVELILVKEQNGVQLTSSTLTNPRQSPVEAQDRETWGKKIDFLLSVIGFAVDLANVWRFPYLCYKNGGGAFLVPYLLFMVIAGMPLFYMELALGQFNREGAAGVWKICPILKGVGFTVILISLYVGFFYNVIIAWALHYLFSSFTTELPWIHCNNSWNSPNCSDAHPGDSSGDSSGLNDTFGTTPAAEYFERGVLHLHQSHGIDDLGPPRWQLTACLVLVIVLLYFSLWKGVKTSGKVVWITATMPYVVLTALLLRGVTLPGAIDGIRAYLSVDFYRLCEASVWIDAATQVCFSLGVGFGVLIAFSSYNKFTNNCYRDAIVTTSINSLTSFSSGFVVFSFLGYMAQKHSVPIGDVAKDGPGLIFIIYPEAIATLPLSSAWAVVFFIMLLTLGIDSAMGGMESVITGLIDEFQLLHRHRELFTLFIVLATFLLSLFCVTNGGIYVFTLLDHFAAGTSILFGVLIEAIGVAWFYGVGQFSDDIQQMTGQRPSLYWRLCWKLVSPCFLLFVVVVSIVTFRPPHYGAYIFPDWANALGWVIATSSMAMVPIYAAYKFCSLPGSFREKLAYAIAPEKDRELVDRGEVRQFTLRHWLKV
The nature of data set [4]: Lipophilicity, logD at pH 7.4. The conditions noted are these: buffer. It is filed as physicochemical.
Data set [5] relates to P-gp. The experiment in a line: Apparent permeability from apical to basolateral side of the dog MDCK cells expressing P-gp transporter. It is filed as ADME, cell-based, Canis lupus familiaris. The conditions noted are these: MDCK-MDR1.
Data set [6] concerns P-gp. The data set is described as follows: Apparent permeability from basolateral to apical side of the dog MDCK cells expressing Pgp transporter. The settings on record: MDCK-MDR1. It is filed as ADME, cell-based, Canis lupus familiaris.
Data set [7] can be described thus: Metabolic stability assessed as intrinsic clearance in human liver microsome. The class given is ADME. The settings on record: liver microsomes.
Data set [8] deals with Voltage-gated inwardly rectifying potassium channel KCNH2 (Homo sapiens, UniProt Q12809). The data set is described as follows: Displacement of [3H]dofetilide from human ERG channel. A general note: Loss of bound radioactivity is the signal in a displacement assay; it reports binding, not function.
Voltage-gated inwardly rectifying potassium channel KCNH2, sequence (Q12809 whole entry): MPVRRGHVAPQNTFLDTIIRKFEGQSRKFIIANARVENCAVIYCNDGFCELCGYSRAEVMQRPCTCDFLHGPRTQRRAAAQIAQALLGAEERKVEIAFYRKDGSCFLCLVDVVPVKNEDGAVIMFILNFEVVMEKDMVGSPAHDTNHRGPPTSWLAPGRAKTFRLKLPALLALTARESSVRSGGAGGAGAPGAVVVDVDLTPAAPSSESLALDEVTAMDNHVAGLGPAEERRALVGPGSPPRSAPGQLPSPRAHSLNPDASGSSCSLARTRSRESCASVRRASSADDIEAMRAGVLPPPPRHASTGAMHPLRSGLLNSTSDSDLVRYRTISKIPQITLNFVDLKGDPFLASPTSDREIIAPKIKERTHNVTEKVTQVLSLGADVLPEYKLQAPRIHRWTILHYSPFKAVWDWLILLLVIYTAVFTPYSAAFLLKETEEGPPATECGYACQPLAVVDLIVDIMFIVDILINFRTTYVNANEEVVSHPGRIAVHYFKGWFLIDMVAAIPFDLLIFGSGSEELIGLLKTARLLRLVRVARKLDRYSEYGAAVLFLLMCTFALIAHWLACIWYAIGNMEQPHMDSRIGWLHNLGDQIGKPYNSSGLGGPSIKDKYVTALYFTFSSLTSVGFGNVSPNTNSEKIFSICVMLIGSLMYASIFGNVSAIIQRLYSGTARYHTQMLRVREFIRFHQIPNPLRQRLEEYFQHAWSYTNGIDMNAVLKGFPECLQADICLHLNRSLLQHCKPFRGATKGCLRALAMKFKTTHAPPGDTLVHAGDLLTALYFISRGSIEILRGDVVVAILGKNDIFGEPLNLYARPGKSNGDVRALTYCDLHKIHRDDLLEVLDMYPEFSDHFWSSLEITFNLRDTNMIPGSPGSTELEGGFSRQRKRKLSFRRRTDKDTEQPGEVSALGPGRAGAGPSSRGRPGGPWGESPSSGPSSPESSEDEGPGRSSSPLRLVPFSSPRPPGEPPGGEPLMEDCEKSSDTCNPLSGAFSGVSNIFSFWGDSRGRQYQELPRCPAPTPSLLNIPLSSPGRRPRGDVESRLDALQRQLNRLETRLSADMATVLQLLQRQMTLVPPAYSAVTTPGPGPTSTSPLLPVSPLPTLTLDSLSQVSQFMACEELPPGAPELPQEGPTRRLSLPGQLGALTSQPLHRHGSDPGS
The nature of data set [9]: Dissociation constant, pKa of the compound. It is filed as physicochemical.
A short description of data set [10]: Apparent permeability from basolateral to apical side of the human CaCO2 membrane. The settings on record: Caco-2. The class given is ADME, cell-based. In general terms: Passage across Caco-2 layers is used to estimate intestinal permeability.
The nature of data set [11]: Half life in human liver microsome. The class given is ADME. The settings on record: liver microsomes.
The target of data set [12] is Cytochrome P450 3A4 (Homo sapiens, UniProt P08684). The data set is described as follows: Inhibition of CYP3A4. It is filed as ADME.
Cytochrome P450 3A4, sequence (P08684 whole entry): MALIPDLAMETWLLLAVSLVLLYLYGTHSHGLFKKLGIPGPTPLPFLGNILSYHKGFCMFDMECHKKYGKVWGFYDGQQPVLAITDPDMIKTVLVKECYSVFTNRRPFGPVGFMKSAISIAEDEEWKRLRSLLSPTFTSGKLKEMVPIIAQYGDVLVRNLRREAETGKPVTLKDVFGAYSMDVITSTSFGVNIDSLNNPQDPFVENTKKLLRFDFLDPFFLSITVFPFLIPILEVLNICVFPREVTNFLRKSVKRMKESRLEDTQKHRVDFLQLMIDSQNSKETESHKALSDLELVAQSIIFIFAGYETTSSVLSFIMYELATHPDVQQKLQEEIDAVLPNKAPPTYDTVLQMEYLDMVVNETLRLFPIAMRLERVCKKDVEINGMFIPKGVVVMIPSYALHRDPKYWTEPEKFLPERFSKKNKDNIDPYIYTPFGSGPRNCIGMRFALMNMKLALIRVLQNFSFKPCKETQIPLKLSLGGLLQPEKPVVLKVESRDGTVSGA
In data set [13] the target is Cytochrome P450 2D6 (Homo sapiens, UniProt P10635). The experiment in a line: Inhibition of CYP2D6. It is filed as ADME.
Cytochrome P450 2D6, sequence (P10635 whole entry): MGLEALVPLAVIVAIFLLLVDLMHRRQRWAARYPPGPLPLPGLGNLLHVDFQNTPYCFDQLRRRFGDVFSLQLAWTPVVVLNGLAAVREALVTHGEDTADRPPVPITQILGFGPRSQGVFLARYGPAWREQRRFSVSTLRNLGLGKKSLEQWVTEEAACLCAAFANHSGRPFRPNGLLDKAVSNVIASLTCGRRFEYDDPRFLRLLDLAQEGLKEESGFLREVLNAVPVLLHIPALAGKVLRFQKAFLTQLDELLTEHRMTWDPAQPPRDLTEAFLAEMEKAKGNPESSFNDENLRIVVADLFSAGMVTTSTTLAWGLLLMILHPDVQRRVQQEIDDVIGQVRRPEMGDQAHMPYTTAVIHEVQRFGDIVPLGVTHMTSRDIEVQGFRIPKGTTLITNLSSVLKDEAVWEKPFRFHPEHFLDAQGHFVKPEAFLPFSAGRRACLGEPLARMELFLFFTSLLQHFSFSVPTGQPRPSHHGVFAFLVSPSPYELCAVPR
Data set [14] addresses T1, 5-hydroxytryptamine receptor 2C (Homo sapiens) (UniProt P28335).
T1 sequence (whole entry): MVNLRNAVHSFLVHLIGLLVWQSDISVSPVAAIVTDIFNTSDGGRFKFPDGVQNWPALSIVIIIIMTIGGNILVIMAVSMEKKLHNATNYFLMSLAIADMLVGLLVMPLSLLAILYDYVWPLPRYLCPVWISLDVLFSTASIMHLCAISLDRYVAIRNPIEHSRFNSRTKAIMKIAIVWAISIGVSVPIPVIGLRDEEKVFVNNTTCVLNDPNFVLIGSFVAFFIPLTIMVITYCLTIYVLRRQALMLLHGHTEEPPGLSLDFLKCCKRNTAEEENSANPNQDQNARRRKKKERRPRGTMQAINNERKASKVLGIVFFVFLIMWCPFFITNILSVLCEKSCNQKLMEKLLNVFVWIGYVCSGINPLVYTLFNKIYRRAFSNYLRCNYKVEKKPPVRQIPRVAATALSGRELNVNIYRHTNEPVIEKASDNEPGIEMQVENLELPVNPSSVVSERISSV
The data set is described as follows: Inhibition of 5HT2C receptor at 10 uM.

In data set [15] the target is T2, Cytochrome P450 1A2 (Homo sapiens, UniProt P05177).
T2 sequence (P05177 whole entry): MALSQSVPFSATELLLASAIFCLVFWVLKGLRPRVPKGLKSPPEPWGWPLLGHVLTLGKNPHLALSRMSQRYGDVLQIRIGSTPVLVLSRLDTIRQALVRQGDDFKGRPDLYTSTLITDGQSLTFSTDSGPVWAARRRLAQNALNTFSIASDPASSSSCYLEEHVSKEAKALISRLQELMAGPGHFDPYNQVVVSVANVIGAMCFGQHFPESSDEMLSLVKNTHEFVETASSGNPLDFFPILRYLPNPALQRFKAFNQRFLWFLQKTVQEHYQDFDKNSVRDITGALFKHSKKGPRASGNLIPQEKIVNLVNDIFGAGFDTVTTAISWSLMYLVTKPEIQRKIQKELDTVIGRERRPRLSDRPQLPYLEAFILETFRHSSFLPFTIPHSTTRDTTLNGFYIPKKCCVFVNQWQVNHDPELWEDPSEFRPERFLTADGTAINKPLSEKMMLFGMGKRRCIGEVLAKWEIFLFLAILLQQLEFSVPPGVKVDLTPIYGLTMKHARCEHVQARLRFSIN
The experiment in a line: Inhibition of CYP1A2. The class given is ADME.

Data set [16] is described as follows: Binding affinity to calcium channel L-type at diltiazem site.
The target in data set [17] is Mu-type opioid receptor (Homo sapiens) (UniProt P35372). The experiment in a line: Inhibition of mu opioid receptor at 10 uM.
Mu-type opioid receptor (Homo sapiens), sequence (P35372 whole entry): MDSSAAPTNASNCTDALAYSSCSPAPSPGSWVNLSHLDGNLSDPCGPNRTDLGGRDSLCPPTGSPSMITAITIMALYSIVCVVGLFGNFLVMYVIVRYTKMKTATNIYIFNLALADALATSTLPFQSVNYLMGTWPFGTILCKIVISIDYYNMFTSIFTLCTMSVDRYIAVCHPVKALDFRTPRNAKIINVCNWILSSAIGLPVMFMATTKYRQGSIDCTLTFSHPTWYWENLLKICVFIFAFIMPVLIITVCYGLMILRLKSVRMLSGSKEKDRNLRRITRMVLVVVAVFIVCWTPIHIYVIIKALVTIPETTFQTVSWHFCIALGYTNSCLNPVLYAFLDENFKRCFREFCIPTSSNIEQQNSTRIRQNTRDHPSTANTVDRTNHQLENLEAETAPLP
In data set [18] the test system is Hepatocyte. The experiment in a line: Metabolic stability assessed as intrinsic clearance in human hepatocytes. The class given is ADME, cell-based, Liver.
The target of data set [19] is Kappa-type opioid receptor (Homo sapiens) (UniProt P41145). The data set is described as follows: Inhibition of kappa opioid receptor at 10 uM.
Kappa-type opioid receptor (Homo sapiens), sequence (P41145 whole entry): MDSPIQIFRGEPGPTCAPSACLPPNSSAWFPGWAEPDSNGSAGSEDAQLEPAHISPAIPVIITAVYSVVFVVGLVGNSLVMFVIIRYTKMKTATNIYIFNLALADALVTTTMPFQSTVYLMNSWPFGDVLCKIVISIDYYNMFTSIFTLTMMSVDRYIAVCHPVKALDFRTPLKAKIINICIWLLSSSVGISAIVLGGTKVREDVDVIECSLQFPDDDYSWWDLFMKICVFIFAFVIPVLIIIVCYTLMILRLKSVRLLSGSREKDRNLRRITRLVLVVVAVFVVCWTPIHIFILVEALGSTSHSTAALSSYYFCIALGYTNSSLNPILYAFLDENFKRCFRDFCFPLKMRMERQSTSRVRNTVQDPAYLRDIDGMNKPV
Data set [20] is described as follows: Apparent permeability from apical to basolateral side of the human CaCO2 membrane. The class given is ADME, cell-based. The conditions noted are these: Caco-2.
A short description of data set [21]: Lipophilicity, logP of the compound. The class given is physicochemical. The settings on record: octanol/water.
The subject of data set [22] is Rattus norvegicus. The experiment in a line: Increase in noradrenaline level in interstitial fluid of conscious rat prefrontal cortex at 0.3 mg/kg, sc relative to baseline. The class given is functional. The settings on record: route subcutaneous.
Data set [23] in a line: Displacement of [3H]noradrenaline from rat noradrenaline transporter expressed in HEK293 cells. The class given is cell-based.
Data set [24] can be described thus: Binding affinity to sodium channel site 2.

Bounds are passed on as bounds.

Sodium-dependent noradrenaline transporter, sequence (P23975 whole entry): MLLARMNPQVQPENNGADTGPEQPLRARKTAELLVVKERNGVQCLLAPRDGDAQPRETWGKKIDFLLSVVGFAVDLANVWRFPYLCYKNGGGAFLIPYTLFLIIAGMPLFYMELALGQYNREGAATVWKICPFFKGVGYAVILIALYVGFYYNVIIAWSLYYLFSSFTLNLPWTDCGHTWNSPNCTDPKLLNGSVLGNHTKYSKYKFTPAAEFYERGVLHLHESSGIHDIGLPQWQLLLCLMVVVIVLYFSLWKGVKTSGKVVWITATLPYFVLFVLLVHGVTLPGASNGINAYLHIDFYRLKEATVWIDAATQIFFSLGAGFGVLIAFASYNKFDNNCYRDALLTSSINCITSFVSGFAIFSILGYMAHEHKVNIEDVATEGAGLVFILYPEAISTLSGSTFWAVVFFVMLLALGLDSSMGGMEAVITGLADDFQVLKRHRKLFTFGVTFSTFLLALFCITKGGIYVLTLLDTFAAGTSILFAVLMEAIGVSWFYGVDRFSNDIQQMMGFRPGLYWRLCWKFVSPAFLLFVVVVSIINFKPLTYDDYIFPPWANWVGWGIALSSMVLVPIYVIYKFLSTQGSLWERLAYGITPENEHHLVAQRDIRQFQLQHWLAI
Sodium-dependent serotonin transporter, sequence (P31645 whole entry): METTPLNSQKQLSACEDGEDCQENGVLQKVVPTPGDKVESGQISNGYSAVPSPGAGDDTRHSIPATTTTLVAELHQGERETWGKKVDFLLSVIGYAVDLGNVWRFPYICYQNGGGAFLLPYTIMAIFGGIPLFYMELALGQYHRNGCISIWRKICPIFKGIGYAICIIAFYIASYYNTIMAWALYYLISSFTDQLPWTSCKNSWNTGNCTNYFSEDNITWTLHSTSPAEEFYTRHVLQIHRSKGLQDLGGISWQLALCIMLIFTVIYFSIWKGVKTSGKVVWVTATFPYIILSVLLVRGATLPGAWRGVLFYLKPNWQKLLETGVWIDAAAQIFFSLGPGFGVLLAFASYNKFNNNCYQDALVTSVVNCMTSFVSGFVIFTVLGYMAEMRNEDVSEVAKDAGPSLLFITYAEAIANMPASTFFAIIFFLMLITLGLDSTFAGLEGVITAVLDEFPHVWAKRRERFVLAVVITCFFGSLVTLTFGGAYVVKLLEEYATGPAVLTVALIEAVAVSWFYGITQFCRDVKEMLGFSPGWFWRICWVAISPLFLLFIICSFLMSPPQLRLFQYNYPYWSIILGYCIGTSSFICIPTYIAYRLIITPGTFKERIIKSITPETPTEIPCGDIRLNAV

Turning to `CNCc1cnc(C)cc1Oc1ccccc1C`, the Ki (commonly the dissociation constant of the complex between target and ligand, obtained from inhibition or displacement) in data set [1] amounted to 0.951 µM; in data set [2], 0.136 µM; in data set [3], 1.52 µM.
The corresponding values for `CCc1ccccc1Oc1cc(C)ncc1CNC` are 0.366 µM, 0.44 µM and 2.28 µM.
Take `CCCc1ccccc1Oc1cc(C)ncc1CNC`: the Ki in data set [1] is 0.438 µM; in data set [2], 0.821 µM; in data set [3], 1.98 µM.
Taken in the same sequence, the figures for `COc1ccccc1Oc1cc(C)ncc1CN(C)C` were 0.296 µM, 1.42 µM and 4.06 µM.
The corresponding values for `CNCc1cnc(C)cc1Oc1ccccc1C(C)C` are 0.082 µM, 1.98 µM and 2.13 µM.
On to `Cc1cc(Oc2ccccc2C(C)C)c(CN(C)C)cn1`, for which the Ki in data set [1] worked out at 0.013 µM; in data set [2] it was 1.47 µM; in [3] it was 2.88 µM. In data set [4], the logD (usually the decadic logarithm of the distribution of all forms, ionised or not, between an organic phase and buffer at a given pH) amounted to 2.5. For the same compound, the Papp A→B (usually the apparent permeability from the apical to the basolateral side of a cell layer) in [5] stood at 38 ×10⁻⁶ cm/s. In addition, in [6], the Papp B→A (usually the apparent permeability from the basolateral to the apical side of a cell layer) stood at 39 ×10⁻⁶ cm/s. Besides, the microsomal CLint (commonly the rate of metabolic loss divided by the concentration) in [7] came out at 17 µL/min/mg.
For `CCc1ccccc1Oc1cc(C)ncc1CN(C)C`, the Ki in data set [1] is 0.027 µM; in data set [2], 0.279 µM; in [3], 2.66 µM. For the same compound, in data set [4], the logD amounted to 2.1. Besides, in data set [7], the microsomal CLint is below 7 µL/min/mg. In addition, the IC50 (commonly the point on the concentration scale where inhibition reaches its midpoint) in data set [8] was above 20 µM.
With `CCc1cc(Cl)ccc1Oc1cc(C)ncc1CN(C)C`, the Ki in [1] was found to be 0.022 µM; in data set [2] it was 0.013 µM.
Regarding `CCCc1ccccc1Oc1cc(C)ncc1CN(C)C`, the Ki in [1] came out at 0.159 µM; in [2], 2.82 µM; in data set [3], 2.25 µM.
Taken in the same sequence, the figures for `Cc1cc(Oc2ccccc2Cl)c(CN(C)C)cn1` were 0.131 µM, 0.242 µM and 1.16 µM.
Consider `CCOc1ccccc1Oc1cc(C)ncc1CN(C)C`, for which the Ki in data set [2] is 4.75 µM; in data set [3], 2.15 µM.
Take `CCOc1ccccc1Oc1cc(C)ncc1CNC`: the Ki in [1] stood at 0.461 µM; in data set [2] it was 0.218 µM; in data set [3], 2.39 µM.
Taken in the same sequence, the figures for `CCc1cc(Cl)ccc1Oc1cc(C)ncc1CNC` were 0.074 µM, 0.018 µM and 4.35 µM.
Taken in the same sequence, the figures for `CNCc1cnc(C)cc1Oc1ccccc1SC` were 0.232 µM, 0.133 µM and 1.75 µM.
As to `CNCc1cnc(C)cc1Oc1ccccc1OC`, the inhibitory constant (Ki) in data set [1] was 0.921 µM; in [2], 0.265 µM; in data set [3] it was 4.8 µM.
In the case of `CNCc1cnc(C)cc1Oc1ccccc1Oc1ccccc1`, the pKa (usually the negative logarithm of the acid dissociation constant) in data set [9] was 4.4. In addition, the Ki in [1] worked out at 0.01 µM; in data set [16], 1.2 µM; in data set [2], 0.823 µM; in data set [3], 1.91 µM; in data set [24], 3.4 µM; in [8] it was 5.8 µM. Further, the Papp B→A turned out to be 19 ×10⁻⁶ cm/s in data set [10] and 41 ×10⁻⁶ cm/s in data set [6]. Also, the half-life (usually the time in which the quantity being followed falls by half) in [11] was above 2 h. The IC50 in [12] was above 3 µM; in data set [13] it was 3.4 µM; in [15], above 3 µM; in [23], 0.0025 µM. Further, the inhibition in data set [14], in [17] and in data set [19] was above 80% throughout. The logD in data set [4] worked out at 1.6. The Papp A→B in [5] is 25 ×10⁻⁶ cm/s; in [20], 11 ×10⁻⁶ cm/s. Further, the CL in data set [18] amounted to 8 µL/min/mg. Moreover, the logP (commonly the decadic logarithm of the partition coefficient of the neutral form, usually between octanol and water) in [21] was 4.4. Also, in data set [22], the Activity is 400%. Also, in data set [7], the microsomal CLint was below 7 µL/min/mg.
As to `Cc1cc(Oc2ccccc2C)c(CN(C)C)cn1`, the inhibition constant Ki is 0.194 µM in data set [1], 0.235 µM in [2] and 1.41 µM in [3].
The corresponding values for `CNCc1cnc(C)cc1Oc1ccccc1Cl` are 0.255 µM, 0.088 µM and 0.834 µM.
On to `Cc1cc(Oc2ccccc2Oc2ccccc2)c(CN(C)C)cn1`, for which the pKa in data set [9] is 4.4. Besides, the inhibition constant Ki was found to be 0.01 µM in data set [1], 4.06 µM in data set [2] and 2.64 µM in data set [3]. Moreover, 0.61 µM corresponded to half-maximal inhibition in data set [13] (IC50). This compound also showed a logD in [4] of 2.4. Further, the Papp A→B in [5] was 41 ×10⁻⁶ cm/s. Moreover, the Papp B→A in data set [6] turned out to be 36 ×10⁻⁶ cm/s. Moreover, the microsomal CLint in data set [7] is 29 µL/min/mg.
In the case of `CSc1ccccc1Oc1cc(C)ncc1CN(C)C`, the Ki in data set [1] worked out at 0.058 µM; in [2], 0.384 µM; in [3] it was 1.93 µM.
